The structures appear in SMILES notation. “Also recorded” adds a separate entry of the source.

For test [1], the system named is HL-60 cells. Put plainly: IL-8 ELISA on HL-60 cells. In kind it is cell-based, human. The following applies: 1, 6 or 24 hr, S1P or LPA up to 3 μM, TNF-α 10 ng/ml. As to the method: Procedure for HL-60 Cells:
Cells: HL-60 (promyelocytic, human) suspension cells
Media: RPMI 1640 medium with 2 mM L-glutamine adjusted to contain 4.5 g/L glucose, 10 mM HEPES, and 1.0 mM sodium pyruvate+10% FBS
1) Cells were plated at a density of 0.25×10^6 cells/ml.
2) Cell pellcts were resuspended in 0.5% FBS media at a density of approximately 1×10^6 cells/ml.
1) Made up all required solutions in 0.5% FBS media (control).
2) 1.4 ml appropriate treatments were added to each well of a 6-well plate.
5) 100 μl cell suspension was added to each well.
7) After the specified time cell supematants were collected into 1.5 ml eppendorf tubes, spun down at 14000 rpm for 5 minutes and stored at −20° C.
D. Refer to Procedure #1 For HeLa Cells (D).

Test [2] relates to EDG-7. In words: NF-κB reporter, EDG-7. The format is cell-based.
In test [3] the target is T1, human EDG-3 (Homo sapiens, UniProt Q99500).
T1 construct: expressed in transfected cells; host or cells: 293-EBNA
T1 sequence (Q99500 whole entry): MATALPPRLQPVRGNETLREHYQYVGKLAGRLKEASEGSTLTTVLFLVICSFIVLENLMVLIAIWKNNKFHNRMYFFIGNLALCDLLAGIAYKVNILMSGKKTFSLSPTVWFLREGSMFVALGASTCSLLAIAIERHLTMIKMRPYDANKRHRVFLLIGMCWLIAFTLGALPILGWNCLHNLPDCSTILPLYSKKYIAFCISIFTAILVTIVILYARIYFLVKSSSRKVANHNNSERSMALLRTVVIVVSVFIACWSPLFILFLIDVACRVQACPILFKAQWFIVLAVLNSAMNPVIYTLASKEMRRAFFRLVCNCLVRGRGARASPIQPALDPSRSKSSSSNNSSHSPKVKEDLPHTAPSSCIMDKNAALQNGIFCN
Put plainly: Calcium microfluorimetry in 293-EBNA cells, EDG-3. In kind it is cell-based. The following applies: EDG-3 transfected cells; 2 μM S1P. As to the method:
Transfections were carried out with EDG receptors in 293-EBNA cells as described above, except that no reporter gene vector was included in the DNA mix. Two days after transfection, cells were harvested by trypsinization and plated at a density of 200,000 cells onto poly-D-lysine-coated coverslips in 100 μl of medium containing 0.5% FBS. After briefly allowing cell attachment to take place, 2 ml of medium without FBS was added and the cells were incubated overnight. The next day, cells were loaded with 5 μM fura-2 AM ester (Molecular Probes) for 60 min at RT, then washed and used for calcium microfluorimetry. […] Treatments were applied using a gravity-fed perfusion apparatus. Fluorescence emission was continuously monitored and recorded with PTI 2.060a software and analyzed with Sigma Plot software. Intracellular calcium concentrations were calculated by interpolation on a ratiometric fluorescence curve generated from fura-2 fluorescence in a calcium dilution series.

Test [4] deals with 293-EBNA cells. In words: IL-8 production in untransfected 293-EBNA cells. The format is cell-based.
The subject of test [5] is HeLa cells. In words: IL-8 ELISA on supernatants of treated HeLa cells. The following applies: for PTX sensitivity of the IL-8 response: PTX 50 ng/ml overnight pre-treatment; for IL-8 induction: concentration series up to 10 μM, 6 hours. The format is cell-based, human. As to the method:
Procedure #1 For HeLa Cells
Cells: HeLa (adenocarcinoma, human)
Media: DMEM/F12+10%FBS adherent
1) Cells were seeded at 0.2×10^6 cells/well in 6-well plates.
2) 1.5 ml 0.5% FBS media was added to each well.
1) Made up all required solutions in 0.5% FBS media (control). Handling of […] for use in NF-κB experiments requires that sonication, commonly used to resuspend LPA, not be done; NF-κB may be activated by lipid peroxides created through vigorous frothing.
3) 1.5 ml appropriate treatments were added to each well.
5) After the specified time cell supernatants were collected into 1.5 ml eppendorf tubes, spun down at 14000 rpm for 5 minutes and stored at −20° C. for later ELISA determination.
D. Detection of Interleukin-8 (IL-8) using an IL-8 ELISA (Enzyme-Linked InimunoSorbent Assay).
1) The Quantikine Human IL-8 ImmunoAssay Kit was obtained from R&D Systems (Cat. D8050).
4) The assay procedure was followed as recommended in the kit for cell culture supernatant samples.
5) ELISA was performed on 50 μl samples of culture supernatant and duplicate samples were measured for each well. Each treatment was performed on triplicate wells.
6) Plates were read on UVmax kinetic microplate reader (Molecular Devices), set to 450 nm and correction set to 575 nm, using Wsoftmax software version 2.34.
Procedure #2 For HeLa Cells
1) Cells were seeded at 2.5×10^4 cells/well in 24-well plates.
2) 0.5 ml 0.5% FBS media was added to all wells not requiring PTX pre-treatment.
3) For wells requiring PTX; 0.5 ml 0.5% FBS media containing 50 ng/ml PTX (1 volume PTX (RBI Cat. P140): 1 volume DTT, incubate 37° C. for 30 minutes then dilute to 50 ng/ml) was added.
Follow Procedure #2 For HeLa Cells with the following exceptions:
Concentrations for LPC, LPE, LPG, LPS, sphingosine and SM used were 10, 50, 100, 1000, and 5000 nM. Concentrations for LPI, lyso-PAF and lysosulfatide used were 0.3 and 3 μM.
2) A 30 minute pre-treatment at 37° C./5%CO2 of 0.5 ml of suramin was done to all wells except control, any PTX and ET-18-OCH3 wells before step 3 of section C.
(In general: In an ELISA, binding on a coated surface is turned into a signal by an enzyme label.)

In test [6] the target is human EDG-4 (Homo sapiens, UniProt O95136). In words: NF-κB luciferase reporter in 293-EBNA cells, human EDG-4. In kind it is cell-based. The following applies: human EDG-4 (pC3-hedg4#36); 3 μM; 6 hours. As for the experimental part:
Transient Transfection Protocol for 293-EBNA (Assay 3): The protocol described in Example 11 for Assay 1 was followed except for the following changes: […] 3) 30 μl Lipofectamine Reagent (Lipofectamine Plus Kit) was diluted in 750 μl DMEM/F12. The diluted Lipofectamine was then combined with the DNA/Plus mixture and incubated at room temperature for 15 min. […] 2) Transfected cells were harvested by trypsinization and 50,000 cells per well were plated in 96-well Blackview plates coated with poly D-lysine (Becton Dickinson Labware, Cat. 40640). No cells were plated in the outside wells of the 96-well plate. […] 1) Media was removed and cells treated with compounds diluted in DMEM/F12 media. The following treatments were used for all transfections: […] 2) The cells were treated for 6 hours. 3) Luciferase assay was performed.

For test [7], the target named is rat edg4 (Rattus norvegicus, UniProt P47752). Put plainly: SRE luciferase reporter in 293-EBNA cells, rat EDG-4. The format is cell-based. Further details: expressed in transfected cells; host or cells: 293-EBNA. To be noted: 3 μM SPC, 6 hr. As to the method: Transfection was accomplished using the Lipofectamine Plus kit (Life Technologies, Cat. 10964-013), using the manufacturer's recommended conditions. Optimal SRE induction was seen when cells were seeded so as to become 100% confluent at the time of treatment, 72-96 hr after transfection.
Chain of rat edg4 (P47752 whole entry): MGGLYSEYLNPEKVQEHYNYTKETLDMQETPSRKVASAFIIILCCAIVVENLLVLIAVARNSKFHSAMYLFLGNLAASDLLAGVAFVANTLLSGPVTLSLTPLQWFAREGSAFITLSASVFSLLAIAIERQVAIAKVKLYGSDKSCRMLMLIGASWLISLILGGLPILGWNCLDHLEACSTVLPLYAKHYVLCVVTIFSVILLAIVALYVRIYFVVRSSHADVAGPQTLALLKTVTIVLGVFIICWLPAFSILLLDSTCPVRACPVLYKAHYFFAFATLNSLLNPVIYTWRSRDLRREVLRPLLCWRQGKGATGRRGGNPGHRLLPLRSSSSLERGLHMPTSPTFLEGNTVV
A general note: In a reporter assay the amount or activity of a reporter protein is the signal.

In the case of `CCCCCCCCCCCCC/C=C/[C@@H](O)[C@@H](N)COP(=O)(O)O` [S1P, sphingosine-1-phosphate], in test [1], the IL-8 release entry was “no such release; also recorded: fail to produce IL-8”. Further, the NF-κB reporter signaling result in test [2] was “fail to signal through NF-κB reporters”. Further, the “Increase in intracellular calcium” value in test [3] is recorded as 300 nM. The IL-8 production result in test [4] is “no IL-8 production”. In test [5] (0.3 μM, 6 hr), the “IL-8 production at 0.3 μM” value was “near plateau values”. Besides, the IL-8 response entry in test [5] (1 and 10 μM, 1, 6 or 24 hours) is “time- and concentration-dependent IL-8 response”. In addition, in test [5], the “PTX sensitivity of the IL-8 response” value was “PTX-sensitive” and the IL-8 induction result is recorded as “induce IL-8 in HeLa cells in a concentration-dependent manner”. Also, the “Lowest concentration that reliably induces IL-8” value in test [5] (repeated experiments) is “about 30 nM”. Further, the “Induction of the NF-κB reporter gene” value in test [6] was 4.5 fold.
Regarding `CCCCCCCCCCCCC/C=C/[C@@H](O)[C@@H](N)COP(=O)([O-])OCC[N+](C)(C)C` [SPC, sphingosylphosphorylcholine], in test [5], the “PTX sensitivity of the IL-8 response” value was “PTX-sensitive” and the IL-8 induction entry is given as “induce IL-8 in HeLa cells in a concentration-dependent manner”. Moreover, in test [6], the “Induction of the NF-κB reporter gene” value was 9 fold. The “Induction of luciferase activity (SRE reporter)” value in test [7] amounted to 35.6 fold.

The values above are taken from patent US6482609B1, “Isolated human EDG-4 receptor and polynucletide encoding said receptor” (priority 1997, dated 2002).
